Where two headings read alike, the source gives them in different places.
Test system: Lox-IMVI melanoma cell line
Experiment: Lox-IMVI anti-proliferative assay (growth inhibition, Cell Titer-Glo)
Format: cell-based, human
Conditions: Homo sapiens, read-out: Activity
Method in brief: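 Cells grown in RPMI + 10% FBS were exposed to compound at 0.5 nM to 10 μM (10-point, 3-fold dilution, duplicate, 0.2% DMSO final) for 72 h at 37 °C, 5% CO2. Viability was read by ATP luminescence at t0 and 72 h. IC50 came from a four-parameter logistic fit normalized to DMSO control.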

[1] = IC50 activity level in the cell-based Lox-IMVI anti-proliferative assay
[2] = Lox-IMVI anti-proliferative assay, IC50 activity level

| IC50 [1] [nM] | IC50 [2] [nM] | Structure (SMILES) |
| --- | --- | --- |
| > 1000 |  | NC(=O)[C@H]1CC[C@@H](n2c(Nc3c(F)ccc(Cl)c3F)nc3cnc(N[C@H]4CCC[C@@H](O)C4)nc32)CC1 [Example 377, (1R,4s)-4-(8-(3-chloro-2,6-difluorophenylamino)-2-((1S,3R)-3-hydroxycyclohexylamino)-9H-purin-9-yl)cyclohexanecarboxamide] |
| 250 to 500 |  | N#Cc1cc(F)c(Nc2nc3cnc(NC4CCC(F)(F)CC4)nc3n2[C@H]2CC[C@@H](C(N)=O)CC2)c(Cl)c1 [Example 378, (1s,4s)-4-(8-(2-chloro-4-cyano-6-fluorophenylamino)-2-(4,4-difluorocyclohexylamino)-9H-purin-9-yl)cyclohexanecarboxamide] |
| > 1000 |  | N#Cc1ccc(Nc2nc3cnc(NC4CCOCC4)nc3n2[C@H]2CC[C@@H](C(N)=O)CC2)c(F)c1F [Example 379, (1s,4s)-4-(8-(4-cyano-2,3-difluorophenylamino)-2-(tetrahydro-2H-pyran-4-ylamino)-9H-purin-9-yl)cyclohexanecarboxamide] |
| > 1000 |  | CC1(C)CC[C@@H](Nc2ncc3nc(Nc4c(F)cc(F)cc4F)n([C@H]4CC[C@@H](C(N)=O)CC4)c3n2)C[C@H]1O [Example 381, (1S,4s)-4-(2-((1R,3R)-3-hydroxy-4,4-dimethylcyclohexylamino)-8-(2,4,6-trifluorophenylamino)-9H-purin-9-yl)cyclohexanecarboxamide] |
| > 1000 |  | CC1(C)CC[C@@H](Nc2ncc3nc(Nc4c(Cl)cccc4Cl)n([C@H]4CC[C@@H](C(N)=O)CC4)c3n2)C[C@H]1O [Example 383, (1S,4s)-4-(8-(2,6-dichlorophenylamino)-2-((1R,3R)-3-hydroxy-4,4-dimethylcyclohexylamino)-9H-purin-9-yl)cyclohexanecarboxamide] |
| > 1000 |  | CC1(C)CC[C@@H](Nc2ncc3nc(Nc4c(F)cc(Cl)cc4F)n([C@H]4CC[C@@H](C(N)=O)CC4)c3n2)C[C@H]1O [Example 386, (1S,4s)-4-(8-(4-chloro-2,6-difluorophenylamino)-2-((1R,3R)-3-hydroxy-4,4-dimethylcyclohexylamino)-9H-purin-9-yl)cyclohexanecarboxamide] |
| > 1000 |  | CC1(C)CC[C@@H](Nc2ncc3nc(Nc4c(Cl)cc(Cl)cc4Cl)n([C@H]4CC[C@@H](C(N)=O)CC4)c3n2)C[C@H]1O [Example 387, (1S,4s)-4-(2-((1R,3R)-3-hydroxy-4,4-dimethylcyclohexylamino)-8-(2,4,6-tnchlorophenylarnino)-9H-purin-9-yl)cyclohexanecarboxamide] |
| > 1000 |  | CC1(C)CC[C@@H](Nc2ncc3nc(Nc4c(F)ccc(Cl)c4F)n([C@H]4CC[C@@H](C(N)=O)CC4)c3n2)C[C@H]1O [Example 390, (1S,4s)-4-(8-(3-chloro-2,6-difluorophenylamino)-2-((1R,3R)-3-hydroxy-4,4-dimethylcyclohexylamino)-9H-purin-9-yl)cyclohexanecarboxamide] |
| > 1000 |  | C[C@@H](CO)Nc1ncc2nc(Nc3c(F)cc(C#N)cc3F)n([C@H]3CC[C@@H](C(N)=O)CC3)c2n1 [Example 394, (1R,4s)-4-(8-(4-cyano-2,6-difluorophenylamino)-2-((S)-1-hydroxypropan-2-ylamino)-9H-purin-9-yl)cyclohexanecarboxamide] |
| > 1000 |  | C[C@@H](CO)Nc1ncc2nc(Nc3c(F)cc(C#N)cc3Cl)n([C@H]3CC[C@@H](C(N)=O)CC3)c2n1 [Example 395, (1R,4s)-4-(8-(2-chloro-4-cyano-6-fluorophenylamino)-2-((S)-1-hydroxypropan-2-ylamino)-9H-purin-9-yl)cyclohexanecarboxamide] |
| < 250 |  | N#Cc1cc(Cl)c(Nc2nc3cnc(NC4CCC(F)(F)CC4)nc3n2[C@H]2CC[C@@H](C(N)=O)CC2)c(Cl)c1 [Example 397, (1s,4s)-4-(8-(2,6-dichloro-4-cyanophenylamino)-2-(4,4-difluorocyclohexylamino)-9H-purin-9-yl)cyclohexanecarboxamide] |
|  | > 1000 | CC[C@@H](CO)Nc1ncc2nc(Nc3c(F)cc(C#N)cc3F)n([C@H]3CC[C@@H](C(N)=O)CC3)c2n1 [Example 402, (1R,4s)-4-(8-(4-cyano-2,6-difluorophenylamino)-2-((S)-1-hydroxybutan-2-ylamino)-9H-purin-9-yl)cyclohexanecarboxamide] |
|  | > 1000 | COC(=O)N1CCCC(Nc2ncc3nc(Nc4c(F)cc(F)cc4F)n([C@H]4CC[C@@H](C(N)=O)CC4)c3n2)C1 (stereo partly drawn) [Example 403, (R)-methyl 3-(9-((1s,4S)-4-carbamoylcyclohexyl)-8-(2,4,6-tnfluorophenylamino)-9H-purin-2-ylamino)piperidine-1-carboxylate] |

Further lines, the compound ahead of its results:

| Structure (SMILES) | IC50 [1] [nM] | IC50 [2] [nM] |
| --- | --- | --- |
| COc1ccc(Nc2nc3cnc(NC4CCOCC4)nc3n2[C@H]2CC[C@@H](C(N)=O)CC2)c(F)c1F [Example 380, (1s,4s)-4-(8-(2,3-difluoro-4-methoxyphenylamino)-2-(tetrahydro-2H-pyran-4-ylamino)-9H-purin-9-yl)cyclohexanecarboxamide] | > 1000 |  |
| CC1(C)CC[C@@H](Nc2ncc3nc(Nc4c(F)cccc4F)n([C@H]4CC[C@@H](C(N)=O)CC4)c3n2)C[C@H]1O [Example 382, (1S,4s)-4-(8-(2,6-difluorophenylamino)-2-((1R,3R)-3-hydroxy-4,4-dimethylcyclohexylamino)-9H-purin-9-yl)cyclohexanecarboxamide] | > 1000 |  |
| CC1(C)CC[C@@H](Nc2ncc3nc(Nc4c(F)cccc4Cl)n([C@H]4CC[C@@H](C(N)=O)CC4)c3n2)C[C@H]1O [Example 384, (1S,4s)-4-(8-(2-chloro-6-fluorophenylamino)-2-((1R,3R)-3-hydroxy-4,4-dimethylcyclohexylamino)-9H-purin-9-yl)cyclohexanecarboxamide] | > 1000 |  |
| CC1(C)CC[C@@H](Nc2ncc3nc(Nc4c(F)cc(F)cc4Cl)n([C@H]4CC[C@@H](C(N)=O)CC4)c3n2)C[C@H]1O [Example 385, (1S,4s)-4-(8-(2-chloro-4,6-difluorophenylamino)-2-((1R,3R)-3-hydroxy-4,4-dimethylcyclohexylamino)-9H-purin-9-yl)cyclohexanecarboxamide] | > 1000 |  |
| CC1(C)CC[C@@H](Nc2ncc3nc(Nc4c(Cl)cc(F)cc4Cl)n([C@H]4CC[C@@H](C(N)=O)CC4)c3n2)C[C@H]1O [Example 388, (1S,4s)-4-(8-(2,6-dichloro-4-fluorophenylamino)-2-((1R,3R)-3-hydroxy-4,4-dimethylcyclohexylamino)-9H-purin-9-yl)cyclohexanecarboxamide] | > 1000 |  |
| CC1(C)CC[C@@H](Nc2ncc3nc(Nc4c(F)cc(Cl)cc4Cl)n([C@H]4CC[C@@H](C(N)=O)CC4)c3n2)C[C@H]1O [Example 389, (1S,4s)-4-(8-(2,4-dichloro-6-fluorophenylamino)-2-((1R,3R)-3-hydroxy-4,4-dimethylcyclohexylamino)-9H-purin-9-yl)cyclohexanecarboxamide] | > 1000 |  |
| C[C@@H]1CC[C@@H](Nc2ncc3nc(Nc4ccc(Cl)cc4Cl)n([C@H]4CC[C@@H](C(N)=O)CC4)c3n2)C[C@H]1O [Example 391, (1S,4s)-4-(8-(2,4-dichlorophenylamino)-2-((1R,3R,4R)-3-hydroxy-4-methylcyclohexylamino)-9H-purin-9-yl)cyclohexanecarboxamide] | > 1000 |  |
| N#Cc1cc(Cl)c(Nc2nc3cnc(NC4CCC4)nc3n2[C@H]2CC[C@@H](C(N)=O)CC2)c(Cl)c1 [Example 392, (1s,4s)-4-(2-(cyclobutylamino)-8-(2,6-dichloro-4-cyanophenylamino)-9H-purin-9-yl)cyclohexanecarboxamide] | < 250 |  |
| N#Cc1cc(F)c(Nc2nc3cnc(NC4CCC4)nc3n2[C@H]2CC[C@@H](C(N)=O)CC2)c(Cl)c1 [Example 393, (1s,4s)-4-(8-(2-chloro-4-cyano-6-fluorophenylamino)-2-(cyclobutylamino)-9H-purin-9-yl)cyclohexanecarboxamide] | 250 to 500 |  |
| N#Cc1cc(F)c(Nc2nc3cnc(NC4CCC(F)(F)CC4)nc3n2[C@H]2CC[C@@H](C(N)=O)CC2)c(F)c1 [Example 396, (1s,4s)-4-(8-(4-cyano-2,6-difluorophenylamino)-2-(4,4-difluorocyclohexylamino)-9H-purin-9-yl)cyclohexanecarboxamide] | 500 to 1000 |  |
| NC(=O)[C@H]1CC[C@@H](n2c(Nc3c(F)cc(C(F)(F)F)cc3Cl)nc3cnc(NC4CCOCC4)nc32)CC1 [Example 398, (1s,4s)-4-(8-(2-chloro-6-fluoro-4-(trifluoromethyl)phenylamino)-2-(tetrahydro-2H-pyran-4-ylamino)-9H-purin-9-yl)cyclohexanecarboxamide] | 500 to 1000 |  |
| N#Cc1cc(Cl)c(Nc2nc3cnc(NC4CC(F)(F)C4)nc3n2[C@H]2CC[C@@H](C(N)=O)CC2)c(Cl)c1 [Example 399, (1s,4s)-4-(8-(2,6-dichloro-4-cyanophenylamino)-2-(3,3-difluorocyclobutylamino)-9H-purin-9-yl)cyclohexanecarboxamide] |  | 250 to 500 |
| N#Cc1cc(F)c(Nc2nc3cnc(NC4CC(F)(F)C4)nc3n2[C@H]2CC[C@@H](C(N)=O)CC2)c(Cl)c1 [Example 400, (1s,4s)-4-(8-(2-chloro-4-cyano-6-fluorophenylamino)-2-(3,3-difluorocyclobutylamino)-9H-purin-9-yl)cyclohexanecarboxamide] |  | 500 to 1000 |
| N#Cc1cc(F)c(Nc2nc3cnc(NC4CC(F)(F)C4)nc3n2[C@H]2CC[C@@H](C(N)=O)CC2)c(F)c1 [Example 401, (1s,4s)-4-(8-(4-cyano-2,6-difluorophenylamino)-2-(3,3-difluorocyclobutylamino)-9H-purin-9-yl)cyclohexanecarboxamide] |  | > 1000 |
| COC(=O)N1CCCC(Nc2ncc3nc(Nc4c(F)cccc4F)n([C@H]4CC[C@@H](C(N)=O)CC4)c3n2)C1 (stereo partly drawn) [Example 404, (R)-methyl 3-(9-((1s,4S)-4-carbamoylcyclohexyl)-8-(2,6-difluorophenylamino)-9H-purin-2-ylamino)piperidine-1-carboxylate] |  | > 1000 |

Reference: patent US11590139B2, “Substituted aminopurine compounds, compositions thereof, and methods of treatment therewith” (Signal Pharmaceuticals, LLC, priority 2014, dated 2023)
